Publication PMC12724303 (Journal of Virology, 2025)
Where two headings read alike, the source gives them in different places.

What was measured:
SARS-CoV-2 Wuhan variant [1] = format: cell-based
SARS-CoV-2 Beta variant = format: cell-based
SARS-CoV-2 Delta variant = format: cell-based
[2] = test system: SARS-CoV-2 viral particles; format: cell-based
[3] = test system: SARS-CoV-2 virion-associated aminophospholipids (procoagulant activity); format: biochemical
[4] = test system: SARS-CoV-2 Wuhan variant in Vero E6 cells; format: cell-based
[5] = test system: SARS-CoV-2 Wuhan variant in Vero E6/TMPRSS2 cells; format: cell-based
SARS-CoV-2 Wuhan variant [6] = format: cell-based; remark: listed apart in the source
[7] = test system: SARS-CoV-2 Wuhan variant particles (N protein and spike protein)
[8] = test system: SARS-CoV-2 Wuhan variant virions
SARS-CoV-2 Wuhan variant [9] = assay: microbe, parasite or virus in culture; format: cell-based

Compound | concentration at the highest dilution completely inhibiting the cytopathic effect (SARS-CoV-2 Wuhan variant [1]) [µM] | highest dilution completely inhibiting the cytopathic effect (SARS-CoV-2 Wuhan variant [1]) [fold] | infection inhibitory activity (cytopathic effect) (SARS-CoV-2 Wuhan variant [1]) | concentration at the highest dilution completely inhibiting the cytopathic effect (SARS-CoV-2 Beta variant) [µM] | highest dilution completely inhibiting the cytopathic effect (SARS-CoV-2 Beta variant) [fold] | concentration at the highest dilution completely inhibiting the cytopathic effect (SARS-CoV-2 Delta variant) [µM] | highest dilution completely inhibiting the cytopathic effect (SARS-CoV-2 Delta variant) [fold] | infection inhibitory activity (cytopathic effect) (SARS-CoV-2 Delta variant) | reduction of infectivity by pretreatment of viral particles [2] | effect on clotting time [3] | effect on clotting time ([3]; 10 mM, 37°C) | reduction in TCID50/mL compared with the control [4] | infectivity of treated virus [5] | intracellular SARS-CoV-2 gRNA level (viral entry) (SARS-CoV-2 Wuhan variant [6]) | viral entry (SARS-CoV-2 Wuhan variant [6]) | band intensities of N protein and spike protein [7] | binding of viral particles to anti-RBD antibody-coated plate (RNA quantification) [8] | selectivity index (SI = CC50/IC50) (SARS-CoV-2 Wuhan variant [9]) | IC50 (SARS-CoV-2 Wuhan variant [9]; Severe acute respiratory syndrome coronavirus 2, VeroE6/TMPRSS2, 72 h, read-out: IC50 against SARS-CoV-2 infection) [µM] | effect on clotting time ([3]; 5 mM)
COC[C@H]1O[C@@H]2O[C@H]3[C@H](OC(C)=O)[C@@H](OC)[C@@H](O[C@H]4[C@H](OC(C)=O)[C@@H](OC)[C@@H](O[C@H]5[C@H](OC(C)=O)[C@@H](OC)[C@@H](O[C@H]6[C@H](OC(C)=O)[C@@H](OC)[C@@H](O[C@H]7[C@H](OC(C)=O)[C@@H](OC)[C@@H](O[C@H]8[C@H](OC(C)=O)[C@@H](OC)[C@@H](O[C@H]1[C@H](OC(C)=O)[C@H]2OC)O[C@@H]8COC)O[C@@H]7COC)O[C@@H]6COC)O[C@@H]5COC)O[C@@H]4COC)O[C@@H]3COC [DMA-β-CyD] | 156 | 64 | showed infection inhibitory activity | 625 | 16 | 156 | 64 | showed infection inhibitory activity | 2.25–2.67 | insufficient recovery of clotting time | markedly prolonged clotting time | 2.22 | 7.34 × 10^3 TCID50/mL | decreased in a DMA-β-CyD-concentration-dependent manner | inhibited the entry of these particles | marked reduction in the band intensities of both proteins | concentration-dependent decrease in binding | – | – | –
COC[C@H]1O[C@@H]2O[C@H]3[C@H](O)[C@@H](OC)[C@@H](O[C@H]4[C@H](O)[C@@H](OC)[C@@H](O[C@H]5[C@H](O)[C@@H](OC)[C@@H](O[C@H]6[C@H](O)[C@@H](OC)[C@@H](O[C@H]7[C@H](O)[C@@H](OC)[C@@H](O[C@H]8[C@H](O)[C@@H](OC)[C@@H](O[C@H]1[C@H](O)[C@H]2OC)O[C@@H]8COC)O[C@@H]7COC)O[C@@H]6COC)O[C@@H]5COC)O[C@@H]4COC)O[C@@H]3COC [DM-β-CyD, 2,6-di-O-methyl-β-cyclodextrin] | – | – | showed infection inhibitory activity | – | – | – | – | showed infection inhibitory activity | – | – | – | – | – | – | – | – | – | 4.04 | 1420 | no effect on clotting time
hydroxypropyl-α-cyclodextrin [HP-α-CyD] | – | – | showed infection inhibitory activity | – | – | – | – | – | – | – | – | – | – | – | – | – | – | – | – | –
